In ChEMBL document CHEMBL1201862, “PubChem BioAssay data set” (2004) one finds EC50, AC50 and IC50 data, which are given here for 26 molecules.

The source made the active and inactive calls.

In series [1] the target is T1, Short transient receptor potential channel 4 (Mus musculus, UniProt Q9QUQ5).
T1 sequence (Q9QUQ5 whole entry): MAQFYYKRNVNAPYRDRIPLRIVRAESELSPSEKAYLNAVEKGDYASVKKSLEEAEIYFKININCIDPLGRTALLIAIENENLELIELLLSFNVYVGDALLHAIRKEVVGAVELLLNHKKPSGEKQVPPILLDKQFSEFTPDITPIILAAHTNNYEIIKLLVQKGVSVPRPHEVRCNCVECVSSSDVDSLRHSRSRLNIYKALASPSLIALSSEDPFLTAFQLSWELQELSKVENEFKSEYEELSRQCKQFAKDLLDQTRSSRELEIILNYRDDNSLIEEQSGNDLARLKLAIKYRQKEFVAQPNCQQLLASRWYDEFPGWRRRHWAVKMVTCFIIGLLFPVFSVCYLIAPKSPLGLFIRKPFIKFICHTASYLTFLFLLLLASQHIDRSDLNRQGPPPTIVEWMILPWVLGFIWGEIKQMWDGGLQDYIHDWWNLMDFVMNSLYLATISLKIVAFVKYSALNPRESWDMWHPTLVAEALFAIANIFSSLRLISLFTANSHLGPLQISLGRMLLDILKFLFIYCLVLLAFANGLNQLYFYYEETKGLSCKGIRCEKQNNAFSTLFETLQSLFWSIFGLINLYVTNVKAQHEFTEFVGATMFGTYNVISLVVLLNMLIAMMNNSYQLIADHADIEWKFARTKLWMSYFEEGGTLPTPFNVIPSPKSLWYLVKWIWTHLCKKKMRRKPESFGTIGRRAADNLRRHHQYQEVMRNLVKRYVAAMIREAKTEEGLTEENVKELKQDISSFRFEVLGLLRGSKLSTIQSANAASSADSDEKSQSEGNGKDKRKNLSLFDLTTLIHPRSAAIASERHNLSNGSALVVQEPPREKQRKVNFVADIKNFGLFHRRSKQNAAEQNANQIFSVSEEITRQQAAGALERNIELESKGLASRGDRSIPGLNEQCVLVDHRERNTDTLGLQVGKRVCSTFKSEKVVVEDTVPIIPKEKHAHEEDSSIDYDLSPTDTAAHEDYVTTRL
Put plainly: calcium entry via TRPC4 opening agents – cell-based, HEK293 TRPC4/mu-opioid, Fluo-4 calcium, dose response (AID 434937). In kind it is functional.

For another series, the target named is Cytochrome P450 3A4 (Homo sapiens, UniProt P08684). Conditions: Potency.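 Note: confirmatory qHTS run detecting inhibitors and substrates of CYP3A4.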
For series [2], the target named is T2, RNA-binding protein pos-1 (Caenorhabditis elegans, UniProt G5EF15).
T2 sequence (G5EF15 whole entry): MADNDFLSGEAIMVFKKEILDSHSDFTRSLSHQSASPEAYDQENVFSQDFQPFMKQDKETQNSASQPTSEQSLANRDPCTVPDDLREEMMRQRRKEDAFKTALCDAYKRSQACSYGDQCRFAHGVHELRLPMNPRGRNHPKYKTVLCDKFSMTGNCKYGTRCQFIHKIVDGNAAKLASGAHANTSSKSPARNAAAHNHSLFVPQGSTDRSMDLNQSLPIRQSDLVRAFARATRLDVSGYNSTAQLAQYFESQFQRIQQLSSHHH
In words: disruptors of C. elegans POS-1 RNA interaction – biochemical, fluorescence polarization, dose response (AID 1964).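 Note: purified POS-1 fused to maltose binding protein made in E. coli; potency of compounds blocking POS-1 binding to fluorescent RNA.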

In series [3] the target is T3, Zinc finger protein mex-5 (Caenorhabditis elegans, UniProt Q9XUB2).
T3 sequence (Q9XUB2 whole entry): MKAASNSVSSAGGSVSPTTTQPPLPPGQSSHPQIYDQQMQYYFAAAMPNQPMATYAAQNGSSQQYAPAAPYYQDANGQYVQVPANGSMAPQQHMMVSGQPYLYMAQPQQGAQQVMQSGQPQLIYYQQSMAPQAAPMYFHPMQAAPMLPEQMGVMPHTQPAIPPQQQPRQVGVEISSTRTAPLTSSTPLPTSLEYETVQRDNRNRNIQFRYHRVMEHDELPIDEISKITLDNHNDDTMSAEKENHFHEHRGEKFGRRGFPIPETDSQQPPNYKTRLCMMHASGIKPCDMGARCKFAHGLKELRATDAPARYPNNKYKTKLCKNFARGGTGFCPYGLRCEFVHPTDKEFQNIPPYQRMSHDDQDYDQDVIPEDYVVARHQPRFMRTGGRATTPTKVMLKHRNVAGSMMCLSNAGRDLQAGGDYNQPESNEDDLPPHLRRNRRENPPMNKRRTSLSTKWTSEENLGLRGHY
In words: potency of MEX-5 RNA-binding blockers – biochemical, C. elegans, fluorescence polarization, dose response (AID 1960).

The next series deals with T4, Caspase-6 (Homo sapiens, UniProt P55212).
T4 sequence (P55212 whole entry): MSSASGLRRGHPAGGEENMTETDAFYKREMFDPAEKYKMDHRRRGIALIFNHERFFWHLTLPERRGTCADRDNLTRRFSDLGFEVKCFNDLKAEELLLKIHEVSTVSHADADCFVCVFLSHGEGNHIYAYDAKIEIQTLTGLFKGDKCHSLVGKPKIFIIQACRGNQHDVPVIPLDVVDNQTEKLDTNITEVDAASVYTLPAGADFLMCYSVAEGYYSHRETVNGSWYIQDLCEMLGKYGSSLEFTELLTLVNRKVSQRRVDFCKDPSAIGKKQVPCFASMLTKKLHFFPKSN
In words: inhibition of CASP6 peptide cleavage – biochemical, VEID-R110 fluorescence, cherry-pick, dose response (AID 720632).

For the next series, the target named is T5, Protein skinhead-1 (Caenorhabditis elegans, UniProt P34707).
T5 sequence (P34707 whole entry): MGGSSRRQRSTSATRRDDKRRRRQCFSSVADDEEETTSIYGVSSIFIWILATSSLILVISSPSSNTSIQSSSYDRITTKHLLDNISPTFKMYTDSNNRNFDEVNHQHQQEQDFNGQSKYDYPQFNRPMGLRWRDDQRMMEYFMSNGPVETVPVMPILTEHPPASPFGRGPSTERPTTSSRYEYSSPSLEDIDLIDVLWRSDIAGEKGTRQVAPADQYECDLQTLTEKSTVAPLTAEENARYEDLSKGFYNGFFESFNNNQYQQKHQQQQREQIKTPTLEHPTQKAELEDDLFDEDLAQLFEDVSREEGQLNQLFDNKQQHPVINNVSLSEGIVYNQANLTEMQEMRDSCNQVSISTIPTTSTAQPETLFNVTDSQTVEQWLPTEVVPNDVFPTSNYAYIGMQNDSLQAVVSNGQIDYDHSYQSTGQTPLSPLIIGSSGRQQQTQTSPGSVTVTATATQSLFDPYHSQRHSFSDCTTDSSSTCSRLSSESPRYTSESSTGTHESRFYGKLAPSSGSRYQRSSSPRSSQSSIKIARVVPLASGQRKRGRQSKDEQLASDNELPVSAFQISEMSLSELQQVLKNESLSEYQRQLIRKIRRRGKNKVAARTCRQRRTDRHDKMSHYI
Format: functional.

The target in the next series is Cytochrome P450 2C9 (Homo sapiens, UniProt P11712).
For a further series, the target named is T6, Cytochrome P450 1A2 (Homo sapiens, UniProt P05177).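 Note: PubChem cytochrome P450 panel assay, CYP1A2 panel member.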
T6 sequence (P05177 whole entry): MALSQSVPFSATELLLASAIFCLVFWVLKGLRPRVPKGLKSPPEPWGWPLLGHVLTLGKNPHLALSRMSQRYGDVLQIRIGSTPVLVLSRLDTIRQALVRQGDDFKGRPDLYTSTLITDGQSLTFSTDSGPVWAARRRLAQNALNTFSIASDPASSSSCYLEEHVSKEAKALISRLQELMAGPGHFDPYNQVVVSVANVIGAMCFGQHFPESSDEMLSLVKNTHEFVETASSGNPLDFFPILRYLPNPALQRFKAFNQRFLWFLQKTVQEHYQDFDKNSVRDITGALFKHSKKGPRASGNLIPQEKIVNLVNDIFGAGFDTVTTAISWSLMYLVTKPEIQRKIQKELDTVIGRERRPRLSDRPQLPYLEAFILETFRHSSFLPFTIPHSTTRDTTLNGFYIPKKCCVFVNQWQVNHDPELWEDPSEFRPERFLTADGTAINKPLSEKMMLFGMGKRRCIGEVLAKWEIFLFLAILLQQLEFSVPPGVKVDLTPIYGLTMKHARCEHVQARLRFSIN

The target in another series is Genome polyprotein (dengue virus type 2, UniProt P29990). Put plainly: flavivirus cap methylation enzyme inhibition – biochemical, confirmation dose response, primary screen (AID 588689). In kind it is functional.
A short description of series [4]: Luminescence Cell-Based Dose Response HTS to Identify Activators of Luciferase Translation or Activity in H4 […] Cells. [Related pubchem assays: 1829 (Project Summary), 1814 (Primary HTS)]. Format: functional.
A short description of series [5]: Luminescence Cell-Based Dose Confirmation HTS to Identify Activators of 5'UTR Stem-Loop Driven Alpha-Synuclein mRNA Translation in H4 Neuroglioblastoma Cells. [Related pubchem assays: 1829 (Project Summary), 1814 (Primary HTS)]. Format: functional.
In another series the test system is H4. Put plainly: Luminescence Cell-Based Dose Response HTS to Identify Activators of 5'UTR Stem-Loop Driven Prion Protein mRNA Translation in H4 Neuroglioblastoma Cells. [Related pubchem assays: 1829 (Project Summary), 1814 (Primary HTS)]. Format: functional. Conditions: Homo sapiens.
Series [6] concerns the target T7, Polyadenylate-binding protein 1 (Homo sapiens, UniProt P11940). Put plainly: MLLE domain peptide-binding blockers, IC50 – biochemical, fluorescence polarization, FITC-PAM2 peptide, dose response (AID 602259). Format: functional. The following applies: read-out: IC50_Mean.
Series [7] deals with T7, Polyadenylate-binding protein 1. Put plainly: MLLE binding blockers, Cy5 peptide tracer – biochemical, fluorescence polarization, Cy5-PAM2 peptide, secondary, miRNA deadenylation inhibitor project, dose response (AID 602260). In kind it is functional. Conditions: read-out: IC50_Mean.

Sequence of Genome polyprotein (P29990 2492-3391 limits assumed): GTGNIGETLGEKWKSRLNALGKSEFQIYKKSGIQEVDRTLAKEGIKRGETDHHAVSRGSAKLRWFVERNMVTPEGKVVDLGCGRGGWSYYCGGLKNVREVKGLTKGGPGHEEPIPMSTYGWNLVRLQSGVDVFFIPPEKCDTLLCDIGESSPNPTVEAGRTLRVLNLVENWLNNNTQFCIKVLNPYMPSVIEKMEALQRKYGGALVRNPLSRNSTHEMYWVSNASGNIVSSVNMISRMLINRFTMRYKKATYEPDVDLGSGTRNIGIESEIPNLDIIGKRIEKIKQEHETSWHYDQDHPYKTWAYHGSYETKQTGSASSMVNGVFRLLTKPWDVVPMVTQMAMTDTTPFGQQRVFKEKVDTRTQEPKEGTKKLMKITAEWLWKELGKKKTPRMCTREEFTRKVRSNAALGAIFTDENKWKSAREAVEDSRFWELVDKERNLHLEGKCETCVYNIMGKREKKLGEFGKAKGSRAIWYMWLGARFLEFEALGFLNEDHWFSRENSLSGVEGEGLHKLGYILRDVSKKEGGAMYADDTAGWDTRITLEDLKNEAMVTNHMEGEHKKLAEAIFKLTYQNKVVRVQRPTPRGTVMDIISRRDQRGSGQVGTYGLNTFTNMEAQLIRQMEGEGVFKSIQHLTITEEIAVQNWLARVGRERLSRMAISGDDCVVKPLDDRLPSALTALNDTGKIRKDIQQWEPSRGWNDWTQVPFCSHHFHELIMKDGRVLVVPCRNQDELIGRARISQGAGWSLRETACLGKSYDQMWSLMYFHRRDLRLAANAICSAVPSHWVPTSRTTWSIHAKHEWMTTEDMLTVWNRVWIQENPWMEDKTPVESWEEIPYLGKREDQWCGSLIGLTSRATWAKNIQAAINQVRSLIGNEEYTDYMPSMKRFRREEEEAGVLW
Sequence of Cytochrome P450 3A4 (P08684 whole entry): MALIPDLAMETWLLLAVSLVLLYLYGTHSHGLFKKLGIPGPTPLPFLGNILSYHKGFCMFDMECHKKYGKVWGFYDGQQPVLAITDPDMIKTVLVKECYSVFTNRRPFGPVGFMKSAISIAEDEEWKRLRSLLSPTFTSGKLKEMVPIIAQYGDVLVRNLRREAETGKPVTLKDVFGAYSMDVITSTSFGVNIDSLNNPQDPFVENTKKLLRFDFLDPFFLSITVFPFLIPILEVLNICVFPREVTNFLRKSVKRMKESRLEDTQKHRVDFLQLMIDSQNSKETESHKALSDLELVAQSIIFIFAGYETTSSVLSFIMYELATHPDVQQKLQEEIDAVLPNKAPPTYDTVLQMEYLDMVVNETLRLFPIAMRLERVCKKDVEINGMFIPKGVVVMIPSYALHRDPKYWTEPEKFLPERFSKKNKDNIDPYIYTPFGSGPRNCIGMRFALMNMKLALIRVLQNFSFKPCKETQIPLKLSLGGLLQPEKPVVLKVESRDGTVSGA
T7 sequence (P11940 whole entry, the tested form may be a part): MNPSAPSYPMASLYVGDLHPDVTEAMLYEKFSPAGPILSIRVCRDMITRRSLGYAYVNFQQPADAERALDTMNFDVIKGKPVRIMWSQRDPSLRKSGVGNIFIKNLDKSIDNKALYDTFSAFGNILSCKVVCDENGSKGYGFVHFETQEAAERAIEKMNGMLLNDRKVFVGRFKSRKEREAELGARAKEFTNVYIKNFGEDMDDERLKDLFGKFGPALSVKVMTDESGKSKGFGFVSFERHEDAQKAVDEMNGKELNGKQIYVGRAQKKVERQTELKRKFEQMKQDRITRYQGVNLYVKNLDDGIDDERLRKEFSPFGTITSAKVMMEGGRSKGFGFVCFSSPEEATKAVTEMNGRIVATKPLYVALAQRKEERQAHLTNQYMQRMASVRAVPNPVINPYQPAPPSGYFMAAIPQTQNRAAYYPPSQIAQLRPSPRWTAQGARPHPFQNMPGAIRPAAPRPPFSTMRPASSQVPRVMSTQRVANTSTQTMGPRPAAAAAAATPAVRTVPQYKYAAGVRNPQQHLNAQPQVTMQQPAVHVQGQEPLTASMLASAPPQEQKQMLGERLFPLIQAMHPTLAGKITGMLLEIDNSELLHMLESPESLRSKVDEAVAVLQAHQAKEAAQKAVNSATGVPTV
Sequence of Cytochrome P450 2C9 (P11712 whole entry): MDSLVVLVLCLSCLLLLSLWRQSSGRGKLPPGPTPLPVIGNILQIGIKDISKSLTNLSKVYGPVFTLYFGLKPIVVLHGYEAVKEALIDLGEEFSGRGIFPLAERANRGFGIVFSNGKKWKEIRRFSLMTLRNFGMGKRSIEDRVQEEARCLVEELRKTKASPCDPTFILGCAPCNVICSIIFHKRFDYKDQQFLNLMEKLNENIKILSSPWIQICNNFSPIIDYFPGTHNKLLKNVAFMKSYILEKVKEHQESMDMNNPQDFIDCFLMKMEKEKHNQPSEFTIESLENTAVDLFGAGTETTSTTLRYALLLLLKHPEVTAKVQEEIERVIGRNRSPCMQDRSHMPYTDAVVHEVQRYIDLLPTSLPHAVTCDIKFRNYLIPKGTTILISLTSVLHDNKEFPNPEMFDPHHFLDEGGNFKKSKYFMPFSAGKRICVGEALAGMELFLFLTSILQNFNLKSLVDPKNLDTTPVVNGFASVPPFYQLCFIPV

On to `COc1cccc(C(=O)OC2CCCN(C)C2)c1` (configuration not stated), for which, in series [1], the EC50 was 0.376 µM (active).

Take `O=C1C=C2C=CC3C[C@@]2(O1)C1CCCCN31` (some centres not stated): the AC50 at Cytochrome P450 3A4 was 31.6 µM (inconclusive).

For the molecule `O=C(O)CCC(=O)NCc1ccc2[nH]c3c(c2c1)CCCC3`, the EC50 was 82.1 µM (active) in series [2] and 112 µM (active) in series [3]. Besides, at Caspase-6, the AC50 was 25.6 µM (active).

On to `COc1ccc(/C=C(\C#N)C(=O)NCC2CCCO2)cc1OC` (configuration not stated), for which the EC50 in series [2] and in [3] was > 300 µM (not active) each time. For the same molecule, the IC50 on Protein skinhead-1 was > 100 µM (inactive). The AC50 entry at Cytochrome P450 2C9 was “inconclusive”; at Cytochrome P450 1A2, 22.4 µM (inconclusive).

Turning to `Cc1csc2c(N3CCN(C(=O)Nc4ccccc4)CC3)ncnc12`, the EC50 in series [1] is 1.68 µM (active).

In the case of `Cc1ccc(NC(=S)NC2CC3CCC(C2)N3Cc2ccco2)c(C)c1` (configuration not stated), the EC50 in series [1] is 5.96 µM (active).

Take `CC1=NN(c2ccc(Br)cc2)C(=O)/C1=C/c1ccc(-c2ccccc2C(=O)O)o1`: the IC50 on Genome polyprotein is 30 µM (active).

As for `COc1ccc(-c2ccccc2C2NC(C(=O)O)CCC2C)cc1` (configuration not stated), on Cytochrome P450 3A4, the AC50 is 5.01 µM (inconclusive).

Consider `Cc1c(N=C=O)cccc1N=C=O`, for which the AC50 on Cytochrome P450 3A4 is 15.8 µM (inconclusive).

For the molecule `CC(=O)N(C)c1ccc(NC(=O)Cc2cccs2)cc1`, the AC50 at Caspase-6 is 31.8 µM (active).

Consider `c1ccc(-c2ccc(CN3C[C@@H]4C(c5ccccc5)C5(c6cccnc6)CC4(C5)[C@H]3c3ccccc3)cc2)cc1` (some centres not stated), for which, at Cytochrome P450 3A4, the AC50 is 15.8 µM (inconclusive).

As to `CCOc1cc(OCC)c(C(C)=O)cc1OCC`, at Cytochrome P450 3A4, the AC50 is 15.8 µM (inconclusive).

`COc1cc(/C=C2/C(=N)N3C(c4ccccc4)=CSC3=NC2=O)ccc1OCC(=O)O`: the half-maximal effective concentration (EC50) in series [4] is 12.7 µM (active); in series [5], 19.6 µM (active); with H4 it was > 120 µM (not active). At Genome polyprotein, the IC50 was > 100 µM (active).

Turning to `COCCn1nnnc1C(c1cc2ccc(OC)cc2nc1O)N1CCN(C2CCCCC2)CC1` (configuration not stated), the half-maximal effective concentration (EC50) in series [1] is 3.76 µM (active).

Take `CSc1ccccc1NC(=O)CN(C)C(=O)COc1cccc2cccnc12`: on Caspase-6, the AC50 was 29.5 µM (active).

On to `O=C(O)C/C(=C\c1cc(Cl)c2c(c1)OCO2)c1nc2ccccc2s1`, for which the concentration at half-maximal activity (AC50) on Caspase-6 was 7.56 µM (active).

`COc1cc2c(Cc3c4c5c(cc(OC)c(OC)c5c5c(OC)c(OC)ccc35)CCN4C)c3c4c(cc(OC)c(OC)c4c2cc1OC)CCN3C`: at Cytochrome P450 3A4, the AC50 is 3.16 µM (inconclusive).

Regarding `Cc1cc[n+](-c2[n-]c(=O)sc2C=NNC(=O)c2ccncc2)cc1`, the results for the IC50 (at Genome polyprotein; in series [6]; in series [7]) were 83.8 µM (active), 36 µM (inactive) and > 66 µM (inactive), respectively.

As to `Cc1nc(NC2CCCCC2)c2nc(-c3ccccc3)n(CCCN(C)C)c2n1`, at Cytochrome P450 3A4, the AC50 was 20 µM (inconclusive).

`COC(=O)CNC(=O)[C@@]1(C)C=C[C@@H](Cc2ccccc2)N1C(C)=O`: the AC50 at Cytochrome P450 3A4 is 20 µM (inconclusive).

Turning to `O=Nc1ccc(Nc2ccccc2)cc1`, the half-maximal activity concentration (AC50) at Cytochrome P450 3A4 was 20 µM (inconclusive).

As to `CCCCN(CC)CCCNC(=O)c1csc2c1CCCCC2`, in [1], the EC50 is 1.19 µM (active).

As for `CSc1nc(O)c(C(c2ccc(OC(C)C)cc2)c2c(O)nc(SC)nc2O)c(O)n1`, the IC50 on Genome polyprotein is 32.9 µM (active).

Take `CN(C)C(CNC(=O)/C=C/c1cccc(Cl)c1)c1ccccc1` (configuration not stated): the concentration giving a half-maximal response (EC50) in series [1] was 0.133 µM (active).

Turning to `COC(=O)CC1[C@@]2(C)C[C@]34OC5(C)OC6(C7CC(=O)OC(c8ccoc8)[C@]7(C)CCC6(O5)[C@]13C)C(OC(C)=O)[C@]4(OC(C)=O)C2OC(C)=O` (some centres not stated), the half-maximal activity concentration (AC50) on Cytochrome P450 3A4 is 20 µM (inconclusive).

Regarding `CN(C)c1ccc2c(c1)[C@@H]1C[C@@H](CC(=O)N3CCOCC3)O[C@@H](CO)[C@@H]1O2`, on Caspase-6, the AC50 was 42.4 µM (active).
